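Method: 48-hour compound exposure of cells in 96-well plates, five concentrations, linear interpolation of endpoints. At the GI50, growth is halved.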 The source made the active and inactive calls. Cut-off read from the data, not from the text of the source: active = GI50 up to about 1.1 µM and inactive = higher.
Key:
Assay in all cases: NCI tumour cell line growth inhibition, 48 h
MCF7 = tested on: MCF7
NCI/ADR-RES = tested on: NCI/ADR-RES
NCI-H23 = tested on: NCI-H23
RXF 393 = tested on: RXF 393
SF-295 = tested on: SF-295
A549 = tested on: A549
HOP-92 = tested on: HOP-92
SK-MEL-5 = tested on: SK-MEL-5
CCRF-CEM = tested on: CCRF-CEM
U-251 = tested on: U-251
HOP-62 = tested on: HOP-62
COLO 205 = tested on: COLO 205
HCT-116 = tested on: HCT-116
SK-MEL-28 = tested on: SK-MEL-28
OVCAR-3 = tested on: OVCAR-3
BT-549 = tested on: BT-549
SK-MEL-2 = tested on: SK-MEL-2
RPMI-8226 = tested on: RPMI-8226
HCC 2998 = tested on: HCC 2998

Row | SMILES | GI50 (MCF7) | GI50 (NCI/ADR-RES) | GI50 (NCI-H23) | GI50 (RXF 393) | GI50 (SF-295) | GI50 (A549) | GI50 (HOP-92) | GI50 (SK-MEL-5) | GI50 (CCRF-CEM) | GI50 (U-251) | GI50 (HOP-62) | GI50 (COLO 205) | GI50 (HCT-116) | GI50 (SK-MEL-28) | GI50 (OVCAR-3) | GI50 (BT-549) | GI50 (SK-MEL-2) | GI50 (RPMI-8226) | GI50 (HCC 2998)
1 | CC(=O)NNc1nc(-c2ccc([N+](=O)[O-])cc2)c(C#N)c(=O)n1C | 28.5 µM (inactive) | > 100 µM (inactive) | 29.4 µM (inactive) | 57 µM (inactive) | 47.5 µM (inactive) | > 100 µM (inactive) | 13.5 µM (inactive) | > 100 µM (inactive) | 50.7 µM (inactive) | 20.8 µM (inactive) | 26.9 µM (inactive) | 44.6 µM (inactive) | 34.5 µM (inactive) | > 100 µM (inactive) | 15.3 µM (inactive) | 1.88 µM (inactive) | > 100 µM (inactive) | 21.1 µM (inactive) | –
2 | CC1Oc2c(c(=O)oc3ccccc23)[C@@]1(C)CC1C[C@H](C)C(=O)O1 (some centres undefined) | 34.4 µM (inactive) | 32.7 µM (inactive) | 19.1 µM (inactive) | – | 63 µM (inactive) | 87.7 µM (inactive) | – | 38.8 µM (inactive) | 5.96 µM (inactive) | 35.1 µM (inactive) | 47.6 µM (inactive) | 32.1 µM (inactive) | 15.1 µM (inactive) | 18.7 µM (inactive) | 20.9 µM (inactive) | 30.8 µM (inactive) | 25.9 µM (inactive) | 33.3 µM (inactive) | 23.2 µM (inactive)
3 | CSCCC(NC(=O)Cc1ccc(C(=O)c2ccccc2)cc1)C(=O)N1CCN(CCCCN2c3ccccc3Sc3cc(N=[N+]=[N-])ccc32)CC1 (centres undefined) | 73.3 µM (inactive) | – | 27.9 µM (inactive) | 89.9 µM (inactive) | 47.6 µM (inactive) | – | > 100 µM (inactive) | 30.2 µM (inactive) | 49.3 µM (inactive) | > 100 µM (inactive) | > 100 µM (inactive) | > 100 µM (inactive) | 65.8 µM (inactive) | – | > 100 µM (inactive) | > 100 µM (inactive) | > 100 µM (inactive) | 68.1 µM (inactive) | > 100 µM (inactive)
4 | CC1C(c2ccccc2O)c2cc3c(cc2OC1N1CCCC1)OCO3 (centres undefined) | 26.5 µM (inactive) | – | 39 µM (inactive) | 13.7 µM (inactive) | 27.2 µM (inactive) | 31 µM (inactive) | 19.8 µM (inactive) | 39.2 µM (inactive) | 23.8 µM (inactive) | 31.7 µM (inactive) | 21.4 µM (inactive) | 23.3 µM (inactive) | 19.5 µM (inactive) | 20.4 µM (inactive) | 20.9 µM (inactive) | 32.3 µM (inactive) | 23.4 µM (inactive) | 24.5 µM (inactive) | 40.6 µM (inactive)
5 | O=S(=O)(O)c1ccc2c(/N=N/c3ccc(Cl)cc3)c(O)ccc2c1 | – | > 100 µM (inactive) | > 100 µM (inactive) | > 100 µM (inactive) | > 100 µM (inactive) | > 100 µM (inactive) | > 100 µM (inactive) | > 100 µM (inactive) | > 100 µM (inactive) | > 100 µM (inactive) | > 100 µM (inactive) | > 100 µM (inactive) | > 100 µM (inactive) | > 100 µM (inactive) | > 100 µM (inactive) | > 100 µM (inactive) | > 100 µM (inactive) | > 100 µM (inactive) | –
6 | Nc1ccccc1/C=C\c1ccccc1 | > 100 µM (inactive) | > 100 µM (inactive) | > 100 µM (inactive) | > 100 µM (inactive) | > 100 µM (inactive) | > 100 µM (inactive) | > 100 µM (inactive) | > 100 µM (inactive) | > 100 µM (inactive) | > 100 µM (inactive) | > 100 µM (inactive) | – | > 100 µM (inactive) | > 100 µM (inactive) | > 100 µM (inactive) | > 100 µM (inactive) | – | > 100 µM (inactive) | –
7 | C=CCN1C(=O)C=C(c2ccccc2)n2ncc3cccc1c32 | > 100 µM (inactive) | > 100 µM (inactive) | > 100 µM (inactive) | – | > 100 µM (inactive) | > 100 µM (inactive) | 27.7 µM (inactive) | 81.5 µM (inactive) | 67.9 µM (inactive) | > 100 µM (inactive) | 80.4 µM (inactive) | > 100 µM (inactive) | > 100 µM (inactive) | > 100 µM (inactive) | > 100 µM (inactive) | > 100 µM (inactive) | > 100 µM (inactive) | 97.7 µM (inactive) | –
8 | O=C(C[N+]1(c2ccccc2)CCOCC1)c1ccccc1 | – | > 100 µM (inactive) | > 100 µM (inactive) | > 100 µM (inactive) | > 100 µM (inactive) | > 100 µM (inactive) | > 100 µM (inactive) | > 100 µM (inactive) | – | > 100 µM (inactive) | > 100 µM (inactive) | – | > 100 µM (inactive) | 0.0445 µM (active) | > 100 µM (inactive) | > 100 µM (inactive) | > 100 µM (inactive) | – | > 100 µM (inactive)

Reference: ChEMBL document CHEMBL1201862, “PubChem BioAssay data set” (2004)
